Measured values published in paper PMC5768343, “A natural inhibitor of kidney-type glutaminase: a withanolide from Physalis pubescens with potent anti-tumor activity” (Oncotarget, 2017).

What was measured:
[1] = test system: glutamine metabolism in T47D cells; assay: Intracellular metabolite levels, T47D; assay type: cell-based, human; conditions: 2.5 or 5 μM, 4 hours
Description: Blocking glutamine metabolism can inhibit the growth and proliferation of glutamine-dependent cells, mainly because of blocking the production and utilization of glutamine metabolites. The effects of different concentrations of physapubescin K on the intracellular glutamine and its downstream metabolites were examined. […] And the same effect could also be seen in Hcc827-ER cells (Figure 7C).
NADPH/NADP^+ ratio was determined by using NADP^+/NADPH Quantification Colorimetric Kit (BioVision, #K347-100). The abundance of intracellular glutamine (KeyGen, Nanjing, China A124), glutamate (KeyGen, Nanjing, China A074), (BioVision, #K778), aspartate (BioVision, #K552), oxaloacetate (BioVision, #K659) and malate (BioVision, #K637) was determined by using quantification kits, according the manufacturer’s instruction. Briefly, 5 × 10^6 cells (10-cm dishes) were collected during log-phase growth by cell scraper, homogenized in 0.2 mL of provided buffers (on ice), and centrifuged at 4°C for 10 min at 13,000 g. Supernatants were deproteinized using 10 K Ultrafiltration tube (Millipore, USA), analyzed and compared to standard curves. The signals obtained were normalized to the protein concentration calculated upon processing a parallel 10-cm dish.

[2] = test system: human pancreatic cancer cells (SW1990); assay: CCK8 cytotoxicity / proliferation assay, SW1990; conditions: for relative cell vitality: CCK8
Description: The SW1990, HT1080, and A375-S2 human tumor cell lines were obtained from ATCC (Manassas, VA, USA). […] SW1990, HT1080, and LO2 cells were cultured in DMEM medium with 10% fetal bovine serum (FBS). All of these cells were cultured at 37°C in a humidified atmosphere with 5% CO2. To estimate cell viability, cells (5000/well) were separately seeded in 96-well plates for 24 h at 37°C in a 5% CO2 incubator. […] All the experiments were performed in triplicate, and the mean absorbance values were calculated. The IC50 values of the compounds were derived from the mean OD values of the triplicate tests versus the drug concentration curves.
Cell proliferation was assessed by incubating them with Cell Counting Kit-8 reagents (Dojindo, Shanghai, China) for 24 h, 48 h, 72 h, 96 h at 37°C and measuring the absorbance at 450 nm. The experiment was performed in triplicate.

[3] = test system: SW1990 cells; assay: Flow cytometric analysis for apoptosis (Annexin V/PI); assay type: cell-based, human; conditions: SW1990, 24 h
Description: SW1990 cells were cultured in six-well plates and treated with different concentrations of physapubescin K for 24 h. Then the cells were harvested, washed twice with ice-cold PBS, and mixed in 100 μL of 1× binding buffer (10 mM HEPES/ NaOH, pH 7.4, 140 mM NaCl, 2.5 mM CaCl2). After incubating with Annexin-V and PI staining liquid (Nanjing KeyGen Biotech. Inc.) for 15 min at room temperature, the cells were examined by flow cytometry (BD Biosciences, FACSCalibur).

[4] = test system: SW1990 cells; assay: Combination with benserazide, CCK8 viability and CompuSyn combination index; assay type: cell-based, human; conditions: combined use with benserazide, ratio less than 1:50, CompuSyn
From the text: Tumor cells are speculated to maintain growth and proliferation through a variety of energy metabolism pathways. Therefore, targeting at a single energy metabolism material might not be an effective method for cancer therapy. It has been determined that growing cancer cells were strongly dependent on energy sources such as glucose and glutamine. We supposed that the blocking of both glucose and glutamine metabolism pathways could display a synergistic tumor inhibition. Hexokinase 2 (HK2) was the crucial enzyme controlling the first step of glycolysis, and systemic deletion of HK2 can impair the tumor progression in mouse models. Nowadays, Metformin (Met), 2-Deoxyglucose (2-DG) and 3-Bromopyruvate (3-BrPA) are most commonly reported HK2 inhibitors. […] The combined inhibitory effects of physapubescin K and benserazide on the growth of SW1990 cells were evaluated. […]
Figure 8 Synergy of physapubescin K (PSBK) in combination treatments (A) Cells were cultured for 1 day with or without the indicated doses of PSBK and benserazide, and cell viability was evaluated by CCK8 assay. (B) At the indicated concentration ratio of PSBK: benserazide combinations at different effect levels, ED50, ED75 and ED95 were calculated using the CompuSyn software. […] The proportion of cells in proliferation is counted by manual counting (D).

[5] = test system: erlotinib-resistant human non-small cell lung cancer cells (HCC827-ER); assay: CCK8 cytotoxicity / proliferation assay, HCC827-ER; assay type: cell-based
Description: (§1) The experiment was performed in triplicate.

[6] = test system: SW1990 cells; assay: EdU and DAPI double staining proliferation assay, SW1990; assay type: cell-based, human; conditions: 5 μM
Description: The logarithmic growth phase cells were seeded in 24-well plates at 2 × 10^4 ∼ 5 × 10^5 cells per well. After 4–6 h, the medium was removed, the medium containing no or different concentrations of compound was replaced, and 50 μM of EdU was added. 2 h later, the medium was removed, cells washed by PBS. 200 μL of cell fixative (i.e., PBS containing 4% paraformaldehyde) was added and incubated at room temperature for 30 minutes. The solution was discarded and 200 μL of 2 mg/mL glycine was added to each well. After 5 minutes of incubation, the glycine solution was discarded. Each well washed with 200 μL of PBS, rinse for 5 minutes, and PBS was removed. Apollo staining was added to each well with 200 μL of 1 X Apollo® staining solution. After incubation for 30 minutes at room temperature and decolorization, the reaction solution was discarded. Similarly, 200 μL of 1 × Hoechst 33342 solution was added to each well to dye the total DNA. After 30 minutes of incubation at room temperature and the reaction solution was discarded, and then the images were captured and analyzed by fluorescence microscopy.

[7] = test system: SW1990 cells; assay: ROS quantification (DCFDA assay); assay type: cell-based, human; conditions: 2.5 or 5 μM, 24 h
Description: DCFDA assay was performed 24 h after interfered with difference concentration of physapubescin K or DMSO. Cells were incubated with 5 μM 2′,7′-dichlorodihydrofluorescein diacetate (DCFDA, KeyGen, Nanjing, China A124) for 30 min. Cells were washed twice with PBS to remove excess DCFDA, and the labeled cells were then collected in PBS. The fluorescent of 2′,7′-dichloro-fluorescein (DCF) was proportionate to ROS generation and was measured by microplate reader.

[8] = test system: human normal liver cell LO2; assay: CCK8 cytotoxicity / proliferation assay, LO2; assay type: cell-based; conditions: CCK8, 48 h
Description: as §1

[9] = molecular target: T1, KGA (recombinant cKGA) (Homo sapiens, UniProt O94925); assay: Microscale thermophoresis (MST) binding assay; conditions: labeled KGA 200 nM, 26°C
T1 construct: human KGA (cKGA) encoding amino acids 221–553 was cloned into pET26b vector; His tag (C); made in house; host or cells: E. coli BL21 (DE3)-RIL-Codon plus
T1 sequence (O94925 221-553): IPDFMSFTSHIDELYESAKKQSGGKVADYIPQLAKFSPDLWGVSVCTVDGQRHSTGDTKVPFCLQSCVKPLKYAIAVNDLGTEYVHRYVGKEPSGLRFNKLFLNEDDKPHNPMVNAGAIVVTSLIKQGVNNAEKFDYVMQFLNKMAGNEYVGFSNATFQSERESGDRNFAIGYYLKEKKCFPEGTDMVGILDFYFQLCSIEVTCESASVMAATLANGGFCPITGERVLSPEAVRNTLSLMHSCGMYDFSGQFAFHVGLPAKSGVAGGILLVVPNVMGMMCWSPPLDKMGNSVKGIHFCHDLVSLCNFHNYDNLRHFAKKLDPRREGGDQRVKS
From the text: Specific details were referenced to our previous work.

## CO[C@H]1O[C@@H]([C@@H](C)[C@H]2C[C@H](OC(C)=O)[C@H]3[C@@H]4C[C@H]5O[C@]56[C@@H](O)C=CC(=O)[C@]6(C)[C@H]4CC[C@@]32C)C[C@]2(C)O[C@]12C [physapubescin K]
[1]
  effects on glutamine metabolism: moderate effects
[2]; Homo sapiens, SW1990, 48 h, read-out: IC50 SW1990
  IC50: 2.21 ± 0.01 µM
[2]; SW1990, 1 μM
  sensitivity of cell growth to treatment: sensitive
[2]; SW1990, 2 μM, 24 h
  relative cell vitality: 50.3%
[2]; SW1990, 2 μM, 36 h
  relative cell vitality: 37.6%
[2]; SW1990, 2 μM, 48 h
  relative cell vitality: 27.3%
[2]; SW1990, 2 μM, alleviated by addition of 4 mM glutamate
  cell proliferation: significantly inhibited cell proliferation
[3]
  apoptosis: induce apoptosis
[4]
  CI value: less than 0.8
[5]; HCC827-ER, 1 μM
  sensitivity of cell growth to treatment: sensitive
[5]; Homo sapiens, HCC827ER, CCK8, 48 h
  IC50: 0.72 ± 0.22 µM
[6]
  proliferated cell ratio: close to zero
[7]
  intracellular reactive oxygen species (ROS) levels: significantly increase
[8]
  IC50: 11.7 ± 0.32 µM
[9]
  Kd: 3.03 ± 0.38 µM
